Reference: paper PMC10882719 (Frontiers in Neuroscience, 2024)
Read-outs that look alike come from different tables or passages of the source.

Columns and labels:
Format in all cases: cell-based
168 GPCRs [1] = target: T1, 168 GPCRs (Homo sapiens, UniProt O43613)
T1 construct: host or cells: PathHunter cell lines
T1 sequence (O43613 1-425): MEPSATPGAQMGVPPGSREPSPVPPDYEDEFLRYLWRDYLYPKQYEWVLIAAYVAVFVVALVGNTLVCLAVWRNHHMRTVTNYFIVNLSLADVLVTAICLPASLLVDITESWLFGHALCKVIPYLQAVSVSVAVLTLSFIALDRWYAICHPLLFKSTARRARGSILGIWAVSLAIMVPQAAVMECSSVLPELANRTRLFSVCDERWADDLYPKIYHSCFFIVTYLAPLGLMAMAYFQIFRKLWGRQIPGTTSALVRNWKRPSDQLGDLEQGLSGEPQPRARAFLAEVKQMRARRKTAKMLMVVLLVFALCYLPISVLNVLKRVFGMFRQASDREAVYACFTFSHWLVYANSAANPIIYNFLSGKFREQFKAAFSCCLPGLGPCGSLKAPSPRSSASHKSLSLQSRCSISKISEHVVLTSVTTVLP

168 GPCRs [2] = target: T2, 168 GPCRs (Homo sapiens, UniProt P25103); conditions: TACR1
T2 construct: host or cells: PathHunter cell lines
T2 sequence (P25103 whole entry): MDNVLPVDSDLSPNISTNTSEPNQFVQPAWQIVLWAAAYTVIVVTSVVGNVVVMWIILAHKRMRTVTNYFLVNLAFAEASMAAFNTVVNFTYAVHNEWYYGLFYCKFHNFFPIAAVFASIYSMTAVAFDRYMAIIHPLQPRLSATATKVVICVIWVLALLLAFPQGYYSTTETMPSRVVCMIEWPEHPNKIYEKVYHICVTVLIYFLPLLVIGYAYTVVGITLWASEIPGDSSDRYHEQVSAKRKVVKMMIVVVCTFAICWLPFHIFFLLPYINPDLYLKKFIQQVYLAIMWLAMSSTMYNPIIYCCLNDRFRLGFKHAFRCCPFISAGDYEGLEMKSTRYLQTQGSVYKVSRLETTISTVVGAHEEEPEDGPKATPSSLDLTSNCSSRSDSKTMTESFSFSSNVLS

168 GPCRs [3] = target: T3, 168 GPCRs (Homo sapiens, UniProt P30518)
T3 construct: host or cells: PathHunter cell lines
T3 sequence (P30518 whole entry): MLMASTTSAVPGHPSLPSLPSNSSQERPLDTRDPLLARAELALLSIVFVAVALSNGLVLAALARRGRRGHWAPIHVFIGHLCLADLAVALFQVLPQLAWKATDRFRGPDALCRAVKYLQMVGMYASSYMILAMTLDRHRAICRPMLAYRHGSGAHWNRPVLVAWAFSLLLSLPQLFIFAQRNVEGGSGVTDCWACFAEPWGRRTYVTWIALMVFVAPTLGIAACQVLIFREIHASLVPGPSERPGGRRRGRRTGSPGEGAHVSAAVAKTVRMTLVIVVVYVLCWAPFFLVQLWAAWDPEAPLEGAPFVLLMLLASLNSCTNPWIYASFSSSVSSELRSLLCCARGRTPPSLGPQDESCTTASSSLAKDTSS

168 GPCRs [4] = target: T4, 168 GPCRs (Homo sapiens, UniProt P35408); conditions: PTGER4
T4 construct: host or cells: PathHunter cell lines
T4 sequence (P35408 whole entry): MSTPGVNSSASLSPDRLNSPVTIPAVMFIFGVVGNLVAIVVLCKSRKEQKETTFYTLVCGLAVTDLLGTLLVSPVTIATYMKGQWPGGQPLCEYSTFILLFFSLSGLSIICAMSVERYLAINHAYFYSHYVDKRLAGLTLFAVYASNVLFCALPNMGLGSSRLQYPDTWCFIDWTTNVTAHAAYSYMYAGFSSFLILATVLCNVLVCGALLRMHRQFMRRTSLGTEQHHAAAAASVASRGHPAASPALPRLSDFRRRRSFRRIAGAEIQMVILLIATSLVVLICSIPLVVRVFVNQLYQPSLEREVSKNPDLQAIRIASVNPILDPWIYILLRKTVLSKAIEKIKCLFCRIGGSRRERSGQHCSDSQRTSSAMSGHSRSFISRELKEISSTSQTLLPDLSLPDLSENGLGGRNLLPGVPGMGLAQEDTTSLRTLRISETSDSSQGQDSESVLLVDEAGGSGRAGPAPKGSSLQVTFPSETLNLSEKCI

168 GPCRs [5] = target: T5, 168 GPCRs (Homo sapiens, UniProt P46092)
T5 construct: host or cells: PathHunter cell lines
T5 sequence (P46092 1-362): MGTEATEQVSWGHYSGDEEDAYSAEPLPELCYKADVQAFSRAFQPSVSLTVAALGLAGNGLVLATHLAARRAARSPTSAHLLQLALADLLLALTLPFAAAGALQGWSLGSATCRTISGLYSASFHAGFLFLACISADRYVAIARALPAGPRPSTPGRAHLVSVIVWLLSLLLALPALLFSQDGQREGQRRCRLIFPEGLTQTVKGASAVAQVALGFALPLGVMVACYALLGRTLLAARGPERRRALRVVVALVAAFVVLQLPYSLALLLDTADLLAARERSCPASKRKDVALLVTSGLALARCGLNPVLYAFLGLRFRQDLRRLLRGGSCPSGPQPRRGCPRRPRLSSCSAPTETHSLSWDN

168 GPCRs [6] = target: T6, 168 GPCRs (Homo sapiens, UniProt P47211)
T6 construct: host or cells: PathHunter cell lines
T6 sequence (P47211 1-349): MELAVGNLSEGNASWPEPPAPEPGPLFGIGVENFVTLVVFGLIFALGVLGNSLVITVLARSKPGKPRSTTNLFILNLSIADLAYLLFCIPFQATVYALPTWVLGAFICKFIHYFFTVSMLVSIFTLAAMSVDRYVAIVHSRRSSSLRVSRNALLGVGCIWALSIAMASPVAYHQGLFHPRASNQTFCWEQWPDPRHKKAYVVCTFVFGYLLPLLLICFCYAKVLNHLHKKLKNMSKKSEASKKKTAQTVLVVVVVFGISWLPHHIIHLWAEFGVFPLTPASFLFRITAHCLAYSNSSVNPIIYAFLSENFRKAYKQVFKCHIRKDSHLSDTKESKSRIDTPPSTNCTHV

168 GPCRs [7] = target: T7, 168 GPCRs (Homo sapiens, UniProt Q9UKP6); conditions: UTR2
T7 construct: host or cells: PathHunter cell lines
T7 sequence (Q9UKP6 1-389): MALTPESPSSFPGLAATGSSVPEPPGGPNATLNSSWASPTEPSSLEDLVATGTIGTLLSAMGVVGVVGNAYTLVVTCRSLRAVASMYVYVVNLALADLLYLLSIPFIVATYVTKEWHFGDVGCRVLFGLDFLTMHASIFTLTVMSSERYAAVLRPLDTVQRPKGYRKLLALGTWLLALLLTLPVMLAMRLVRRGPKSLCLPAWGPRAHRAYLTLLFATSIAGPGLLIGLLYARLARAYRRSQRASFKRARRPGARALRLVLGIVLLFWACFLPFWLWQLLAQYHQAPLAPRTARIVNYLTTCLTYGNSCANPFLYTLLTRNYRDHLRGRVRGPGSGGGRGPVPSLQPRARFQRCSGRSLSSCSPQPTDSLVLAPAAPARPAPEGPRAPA

Row | Compound | % Agonist Activity (168 GPCRs [1]; HCRTR1, 1 uM) [%] | % Antagonist Activity (168 GPCRs [1]; HCRTR1, 1 uM) [%] | % Agonist Activity (168 GPCRs [1]; HCRTR1, 10 uM) [%] | % Antagonist Activity (168 GPCRs [1]; HCRTR1, 10 uM) [%] | % Agonist Activity (168 GPCRs [2]; Conc 1 uM) [%] | % Antagonist Activity (168 GPCRs [2]; Conc 1 uM) [%] | % Agonist Activity (168 GPCRs [2]; Conc 10 uM) [%] | % Antagonist Activity (168 GPCRs [2]; Conc 10 uM) [%] | % Agonist Activity (168 GPCRs [3]; AVPR2, 1 uM) [%] | % Antagonist Activity (168 GPCRs [3]; AVPR2, 1 uM) [%] | % Agonist Activity (168 GPCRs [3]; AVPR2, 10 uM) [%] | % Antagonist Activity (168 GPCRs [3]; AVPR2, 10 uM) [%] | % Agonist Activity (168 GPCRs [4]; Conc 1 uM) [%] | % Antagonist Activity (168 GPCRs [4]; Conc 1 uM) [%] | % Agonist Activity (168 GPCRs [4]; Conc 10 uM) [%] | % Antagonist Activity (168 GPCRs [4]; Conc 10 uM) [%] | % Agonist Activity (168 GPCRs [5]; CCR10, 1 uM) [%] | % Antagonist Activity (168 GPCRs [5]; CCR10, 1 uM) [%] | % Agonist Activity (168 GPCRs [5]; CCR10, 10 uM) [%] | % Antagonist Activity (168 GPCRs [5]; CCR10, 10 uM) [%] | also measured
1 | CNC(C)C(=O)c1ccc2c(c1)OCO2 (centres unmarked) [methylone] | -0.1 | 2.3 | -0.1 | 1.2 | -3.9 | 15.2 | -4.4 | 8.9 | -0.9 | -2.7 | 1 | -14.8 | -2.8 | 10.1 | -1.4 | 4.3 | -2 | 5.4 | -1.8 | 2.6 | % Agonist Activity (168 GPCRs [6]; GALR1, 1 uM): 0.8%; % Antagonist Activity (168 GPCRs [6]; GALR1, 1 uM): 7.1%; % Agonist Activity (168 GPCRs [6]; GALR1, 10 uM): 0.6%; % Antagonist Activity (168 GPCRs [6]; GALR1, 10 uM): 6.8%; % Agonist Activity (168 GPCRs [7]; Conc 1 uM): 0.6%; % Antagonist Activity (168 GPCRs [7]; Conc 1 uM): -2.1%; % Agonist Activity (168 GPCRs [7]; Conc 10 uM): 0%; % Antagonist Activity (168 GPCRs [7]; Conc 10 uM): 4.2%
2 | CNC(C)Cc1ccc2c(c1)OCO2 (centres unmarked) [MDMA, 3,4-Methylenedioxy methamphetamine, reference compound] | -0.2 | 8.6 | -0.1 | 15 | -0.2 | 4.4 | -0.1 | -2.1 | -2.9 | -7.8 | -2.2 | -0.4 | 11.1 | 7.2 | 7.8 | 11.7 | -1.1 | 8.9 | -0.7 | 12.1 | % Agonist Activity (168 GPCRs [6]; GALR1, 1 uM): 0.7%; % Antagonist Activity (168 GPCRs [6]; GALR1, 1 uM): -0.2%; % Agonist Activity (168 GPCRs [6]; GALR1, 10 uM): 0.6%; % Antagonist Activity (168 GPCRs [6]; GALR1, 10 uM): -5.1%; % Agonist Activity (168 GPCRs [7]; Conc 1 uM): -1.1%; % Antagonist Activity (168 GPCRs [7]; Conc 1 uM): 4.4%; % Agonist Activity (168 GPCRs [7]; Conc 10 uM): -0.1%; % Antagonist Activity (168 GPCRs [7]; Conc 10 uM): 14.3%
